Active and inactive are the calls of the source. The rule behind the calls is not given here.
Key:
HCT-116 [1] = test: Induction of cell cycle arrest in human HCT-116 cells assessed as accumulation of cells S phase at 250 nM incubated for 1 hr followed by exposure to 2 Gy gamma irradiation and measured after 48 hrs propidium iodide staining based analysis (reference value: 21.35%); format: functional; conditions: time 49 hrs
HCT-116 [2] = test: Inhibition of colony formation in human HCT-116 cells at […] preincubated with compound for 1 hr followed by exposure to 2 Gy gamma irradiation and measured after 7 days by crystal violet staining based chemiluminescence assay relative to control; format: functional; conditions: HCT-116, light or radiation study, dose 0.25 µM, time 169 hrs
HCT-116 [3] = test: Induction of cell cycle arrest in human HCT-116 cells assessed as accumulation of cells S phase at 250 nM (reference value: 19.72%); format: functional
NCI-H460 = test: Antitumor activity against human NCI-H460 cells xenografted in BALB/ c nude mouse assessed as inhibition of tumor growth at 100 mg/kg, po administered once daily with 2 Gy irradiation and measured upto 7 days by vernier caliper analysis; format: functional, organism-based; conditions: time <= 7.0 day
HCT-116 [4] = test: Induction of cell cycle arrest in human HCT-116 cells assessed as accumulation of cells G2/M phase at 1000 nM incubated for 1 hr followed by exposure to 2 Gy gamma irradiation and measured after 48 hrs propidium iodide staining based analysis (reference value: 18.65%); format: functional; conditions: time 49 hrs
HCT-116 [5] = test: Induction of cell cycle arrest in human HCT-116 cells assessed as accumulation of cells S phase at 1000 nM (reference value: 19.72%); format: functional
HCT-116 [6] = test: Inhibition of colony formation in human HCT-116 cells preincubated with compound for 1 hr followed by exposure to 2 Gy gamma irradiation and measured after 7 days by crystal violet staining based chemiluminescence assay; format: functional, cell-based; conditions: HCT-116, light or radiation study
A549 [7] = test: Antitumor activity against human A549 cells xenografted in BALB/c nude mouse assessed as tumor growth inhibition at 7.5 mg/kg, po administered once daily measured upto 26 days in presence of paclitaxel by vernier caliper analysis relative to control; format: functional; conditions: A549, 624 h, time <= 26 day, read-out: TGI
HCT-116 [8] = test: Induction of cell cycle arrest in human HCT-116 cells assessed as accumulation of cells S phase at 500 nM incubated for 1 hr followed by exposure to 2 Gy gamma irradiation and measured after 48 hrs propidium iodide staining based analysis (reference value: 21.35%); format: functional; conditions: time 49 hrs
HCT-116 [9] = test: Induction of cell cycle arrest in human HCT-116 cells assessed as accumulation of cells G0/G1 phase at 1000 nM (reference value: 66.45%); format: functional
HCT-116 [10] = test: Induction of cell cycle arrest in human HCT-116 cells assessed as accumulation of cells G2/M phase at 1000 nM (reference value: […]%); format: functional
HCT-116 [11] = test: Induction of cell cycle arrest in human HCT-116 cells assessed as accumulation of cells G0/G1 phase at 250 nM (reference value: 66.45%); format: functional
HCT-116 [12] = test: Induction of cell cycle arrest in human HCT-116 cells assessed as accumulation of cells G2/M phase at 2000 nM (reference value: […]%); format: functional
HCT-116 [13] = test: Induction of cell cycle arrest in human HCT-116 cells assessed as accumulation of cells G0/G1 phase at 2000 nM (reference value: 66.45%); format: functional
HCT-116 [14] = test: Inhibition of bleomycin-induced DNA-double stranded breaks in human HCT-116 cells assessed as reduction in gammaH2AX level pretreated for 1 hrs followed by bleomycin addition and measured after 6 hrs Western blot analysis; format: functional, cell-based; conditions: dose 0.03-30 µM, time 7.0 hrs
HCT-116 [15] = test: Induction of cell cycle arrest in human HCT-116 cells assessed as accumulation of cells S phase at 2000 nM incubated for 1 hr followed by exposure to 2 Gy gamma irradiation and measured after 48 hrs propidium iodide staining based analysis (reference value: 21.35%); format: functional; conditions: time 49 hrs
HCT-116 [16] = test: Induction of cell cycle arrest in human HCT-116 cells assessed as accumulation of cells S phase at 1000 nM incubated for 1 hr followed by exposure to 2 Gy gamma irradiation and measured after 48 hrs propidium iodide staining based analysis (reference value: 21.35%); format: functional; conditions: time 49 hrs
HCT-116 [17] = test: Induction of cell cycle arrest in human HCT-116 cells assessed as accumulation of cells G0/G1 phase at 250 nM incubated for 1 hr followed by exposure to 2 Gy gamma irradiation and measured after 48 hrs propidium iodide staining based analysis (reference value: 60.01%); format: functional; conditions: time 49 hrs
HCT-116 [18] = test: Induction of cell cycle arrest in human HCT-116 cells assessed as accumulation of cells G2/M phase at 250 nM (reference value: […]%); format: functional
HCT-116 [19] = test: Induction of cell cycle arrest in human HCT-116 cells assessed as accumulation of cells G2/M phase at 500 nM (reference value: […]%); format: functional
HCT-116 [20] = test: Induction of cell cycle arrest in human HCT-116 cells assessed as accumulation of cells G2/M phase at 500 nM incubated for 1 hr followed by exposure to 2 Gy gamma irradiation and measured after 48 hrs propidium iodide staining based analysis (reference value: 18.65%); format: functional; conditions: time 49 hrs
HCT-116 [21] = test: Induction of cell cycle arrest in human HCT-116 cells assessed as accumulation of cells G0/G1 phase at 1000 nM incubated for 1 hr followed by exposure to 2 Gy gamma irradiation and measured after 48 hrs propidium iodide staining based analysis (reference value: 60.01%); format: functional; conditions: time 49 hrs
HCT-116 [22] = test: Induction of cell cycle arrest in human HCT-116 cells assessed as accumulation of cells G0/G1 phase at 2000 nM incubated for 1 hr followed by exposure to 2 Gy gamma irradiation and measured after 48 hrs propidium iodide staining based analysis (reference value: 60.01%); format: functional; conditions: time 49 hrs
BT-474 = test: Antitumor activity against human BT-474 cells xenografted in BALB/c nude mouse assessed as inhibition of tumor growth at 0.25 to 12.5 mg/kg, po measured upto 10 days in presence of liposome doxorubicin by vernier caliper analysis; format: functional, organism-based; conditions: dose lower […], dose upper 12.5 mg/kg, time <= 10.0 day
HCT-116 [23] = test: Induction of cell cycle arrest in human HCT-116 cells assessed as accumulation of cells S phase at 500 nM (reference value: 19.72%); format: functional
HCT-116 [24] = test: Induction of cell cycle arrest in human HCT-116 cells assessed as accumulation of cells G0/G1 phase at 500 nM incubated for 1 hr followed by exposure to 2 Gy gamma irradiation and measured after 48 hrs propidium iodide staining based analysis (reference value: 60.01%); format: functional; conditions: time 49 hrs
HCT-116 [25] = test: Induction of cell cycle arrest in human HCT-116 cells assessed as accumulation of cells G0/G1 phase at 500 nM (reference value: 66.45%); format: functional
HCT-116 [26] = test: Induction of cell cycle arrest in human HCT-116 cells assessed as accumulation of cells S phase at 2000 nM (reference value: 19.72%); format: functional
HCT-116 [27] = test: Induction of cell cycle arrest in human HCT-116 cells assessed as accumulation of cells G2/M phase at 250 nM incubated for 1 hr followed by exposure to 2 Gy gamma irradiation and measured after 48 hrs propidium iodide staining based analysis (reference value: 18.65%); format: functional; conditions: time 49 hrs
HCT-116 [28] = test: Induction of cell cycle arrest in human HCT-116 cells assessed as accumulation of cells G2/M phase at 2000 nM incubated for 1 hr followed by exposure to 2 Gy gamma irradiation and measured after 48 hrs propidium iodide staining based analysis (reference value: 18.65%); format: functional; conditions: time 49 hrs
[29] = Toxicity in BALB/c nude mouse assessed as effect on body weight loss at 15 mg/kg, po measured upto 28 days […]; format: organism-based; conditions: in vivo, 672 h, time < 28 day
in vivo [30] = conditions: Sprague-Dawley, rat, po, 5 mg/kg
in vivo [31] = conditions: Sprague-Dawley, rat, po, 5 mg/kg; remark: listed apart in the source
in vivo [32] = conditions: Sprague-Dawley, rat, iv, 5 mg/kg
[33] = rat, in vivo, po, 5 mg/kg, 24 h
A549 [34] = test: Antitumor activity against human A549 cells xenografted in BALB/c nude mouse assessed as tumor growth inhibition at 15 mg/kg, po administered once daily measured upto 26 days in presence of paclitaxel by vernier caliper analysis relative to control; format: functional; conditions: A549, 624 h, time <= 26 day, read-out: TGI
in vivo [35] = conditions: Sprague-Dawley, rat, iv, 5 mg/kg; remark: listed apart in the source

Cc1cc(-c2cnn(C)c2)ncc1Nc1ncc2c(n1)n(C1CCOCC1)c(=O)n2C
Activity (HCT-116 [1]): 22.74% | inhibition at […] (HCT-116 [2]): 99.4% | Activity (HCT-116 [3]): 19.94% | Activity (NCI-H460): Active | Activity (HCT-116 [4]): 53.54% | Activity (HCT-116 [5]): 21.75% | IC50 (HCT-116 [6]): 33.3 nM | inhibition in vivo at 7.5 mg/kg (A549 [7]): 78.8% | Activity (HCT-116 [8]): 25.63% | Activity (HCT-116 [9]): 61.36% | Activity (HCT-116 [10]): 14.91% | Activity (HCT-116 [11]): 65.15% | Activity (HCT-116 [12]): 16.46% | Activity (HCT-116 [13]): 60.62% | inhibition (HCT-116 [14]): Dose-Dependent Effect | Activity (HCT-116 [15]): 9.03% | Activity (HCT-116 [16]): 13.82% | Activity (HCT-116 [17]): 53.41% | Activity (HCT-116 [18]): 15.81% | Activity (HCT-116 [19]): 15.5% | Activity (HCT-116 [20]): 30.99% | Activity (HCT-116 [21]): 32.64% | Activity (HCT-116 [22]): 24.76% | Activity (BT-474): Active | Activity (HCT-116 [23]): 23.44% | Activity (HCT-116 [24]): 45.35% | Activity (HCT-116 [25]): 60.76% | Activity (HCT-116 [26]): 22.92% | Activity (HCT-116 [27]): 21.65% | Activity (HCT-116 [28]): 69.21%

Cc1cc2ncnn2cc1Nc1ncc2c(n1)n(C1CCOCC1)c(=O)n2C [AZD-7648]
Activity [29]: Non-Toxic | inhibition at […] (HCT-116 [2]): 98.2% | Activity (NCI-H460): Active | bioavailability at 24 h (in vivo [30]): 78.1% | IC50 (HCT-116 [6]): 38.1 nM | Cmax at 24 h (in vivo [31]): 836 ng/mL | AUC(0-t) at 24 h (in vivo [32]): 3150 ng·h/mL | AUCt [33]: 2458.98 µg·h/L | inhibition in vivo at 15 mg/kg (A549 [34]): 46.1% | Cmax at 24 h (in vivo [35]): 2620 ng/mL
